In patent US11117894B2, “Pyridopyrazine compounds and uses thereof” (CITY OF HOPE, priority 2017, dated 2021):
One block for each compound: values may come before it.

Tests used:
[1] = test system: A2058 melanoma; test: MTS cell viability assay, A2058 melanoma cell line; format: cell-based; conditions: 48 h; for IC50: Homo sapiens, MTS; for Viability % CTL A2058 melanoma: Table 1, screened at 10 μM; for Viability (% CTL) at 10 μM A2058 melanoma: Table 2, 10 μM
Method: (§1) MTS assays were performed for cell viability. To determine if novel pyridopyrazine derivatives have antitumor activities, compounds were screened at 10 μM final concentration with A2058 melanoma and DU145 prostate cancer cell lines. Compounds #16 and #17 were selected to determine IC50 values against lung cancer cell lines, including A549, DMS273, H69, H513, H2461, DMS114, H358 and H2596. In this assay, cells (5000/well) were seeded in 96-well plates, incubated overnight at 37° C. in 5% CO2, and exposed to 10 μM of compounds or in a dose-dependent manner for 48 h. After 48 h treatment with compounds, MTS dye (20 μL/well) was added to 96-well plates. Viable cell numbers were determined by tetrazolium conversion to its formazan dye. Absorbance was measured at 490 nm using an automated ELISA plate reader. Dimethyl sulfoxide (DMSO) was used as the vehicle control. Each experiment was conducted in triplicate. IC50 values were determined using CalcuSyn software (Biosoft).

[2] = test system: H69 small cell lung cancer; test: MTS cell viability assay, H69 lung cancer cell line; format: cell-based; conditions: 48 h
Method: as §1

[3] = test system: H2596 NSCLC; test: MTS cell viability assay, H2596 lung cancer cell line; format: cell-based; conditions: 48 h
Method: as §1

[4] = test system: A549 NSCLC; test: MTS cell viability assay, A549 lung cancer cell line; format: cell-based; conditions: Homo sapiens, 48 h
Method: as §1

[5] = test system: H513 NSCLC; test: MTS cell viability assay, H513 lung cancer cell line; format: cell-based; conditions: 48 h
Method: as §1

[6] = test system: H358 NSCLC; test: MTS cell viability assay, H358 lung cancer cell line; format: cell-based; conditions: Homo sapiens, NCI-H358, 48 h
Method: as §1

[7] = test system: H2461 NSCLC; test: MTS cell viability assay, H2461 lung cancer cell line; format: cell-based; conditions: 48 h
Method: as §1

[8] = test system: DMS273 small cell lung cancer; test: MTS cell viability assay, DMS273 lung cancer cell line; format: cell-based; conditions: Homo sapiens, DMS-273, 48 h
Method: as §1

[9] = test system: DU145 prostate cancer; test: MTS cell viability assay, DU145 prostate cancer cell line; format: cell-based; conditions: 48 h; for IC50: Homo sapiens, DU-145, DU145 prostate cancer, MTS; for Viability % CTL DU145 prostate: Table 1, screened at 10 μM; for Viability (% CTL) at 10 μM DU145 prostate: Table 2
Method: as §1

[10] = test system: DMS114 small cell lung cancer; test: MTS cell viability assay, DMS114 lung cancer cell line; format: cell-based; conditions: Homo sapiens, DMS-114, 48 h
Method: as §1

IC50 [1]: 1.29 µM | IC50 [2]: 0.98 µM | IC50 [3]: 1.07 µM | IC50 [4]: 1.54 µM | IC50 [5]: 1.26 µM | IC50 [6]: 1.97 µM | IC50 [7]: 1.71 µM | IC50 [8]: 1.09 µM | IC50 [9]: 1.72 µM | IC50 [10]: 3.15 µM
Compound: Cc1nc2nc(Nc3ccccc3)cnc2cc1NC(=O)Nc1cccc(C(F)(F)F)c1 [Compound 16, 1-(6-Methyl-3-(phenylamino)pyrido[2,3-b]pyrazin-7-yl)-3-(3-(trifluoromethyl)phenyl)urea]
Viability % CTL A2058 melanoma [1]: 4 % CTL | Viability % CTL DU145 prostate ([9]; DU145 prostate): 10 % CTL

melting point: > 300 °C (dec.)
Compound: Cc1nc2nc(Nc3ccccc3)cnc2cc1N [Compound 7, 6-Methyl-N^3-phenylpyrido[2,3-b]pyrazine-3,7-diamine]
Viability (% CTL) at 10 μM A2058 melanoma [1]: 98 % CTL | Viability (% CTL) at 10 μM DU145 prostate ([9]; DU145 prostate, 10 μM): 76 % CTL

IC50 [1]: 1.13 µM | IC50 [2]: 0.51 µM | IC50 [3]: 0.62 µM | IC50 [4]: 0.92 µM | IC50 [5]: 0.69 µM | IC50 [6]: 1.18 µM | IC50 [7]: 0.8 µM | IC50 [8]: 0.32 µM | IC50 [9]: 1.04 µM | IC50 [10]: 0.72 µM
Compound: Cc1nc2nc(Nc3ccccc3)cnc2cc1NC(=O)Nc1ccc(F)c(Cl)c1 [Compound 17, 1-(3-Chloro-4-fluorophenyl)-3-(6-methyl-3-(phenylamino)pyrido[2,3-b]pyrazin-7-yl)urea]
Viability % CTL A2058 melanoma [1]: 2 % CTL | Viability % CTL DU145 prostate ([9]; DU145 prostate): 0 % CTL

melting point: 265 °C
Compound: Cc1nc2nc(Nc3ccccc3)cnc2cc1NC(=O)c1ccc(N)cc1 [Compound 13, 4-Amino-N-(6-methyl-3-(phenylamino)pyrido[2,3-b]pyrazin-7-yl)benzamide]
Viability (% CTL) at 10 μM A2058 melanoma [1]: 84 % CTL | Viability (% CTL) at 10 μM DU145 prostate ([9]; DU145 prostate, 10 μM): 77 % CTL

Compound: Cc1nc2nc(Sc3ccccc3)cnc2cc1NC(=O)c1cccc(C(F)(F)F)c1 [Compound 15B]
Viability % CTL A2058 melanoma [1]: 61 % CTL | Viability % CTL DU145 prostate ([9]; DU145 prostate): 113 % CTL

Compound: Cc1nc2nc(Nc3ccccc3)cnc2cc1NC(=O)Nc1ccccc1 [Compound 15, 1-(6-Methyl-3-(phenylamino)pyrido[2,3-b]pyrazin-7-yl)-3-phenylurea]
Viability (% CTL) at 10 μM A2058 melanoma [1]: 5 % CTL | Viability (% CTL) at 10 μM DU145 prostate ([9]; DU145 prostate, 10 μM): 4 % CTL

Compound: Cc1nc2nc(Oc3ccccc3)cnc2cc1[N+](=O)[O-] [Compound 55C]
Viability % CTL A2058 melanoma [1]: 91 % CTL | Viability % CTL DU145 prostate ([9]; DU145 prostate): 95 % CTL

Compound: Cc1nc2nc(Nc3ccc(C(=O)O)cc3)cnc2cc1NC(=O)Nc1ccc(F)c(Cl)c1 [Compound 35, 4-((7-(3-(3-Chloro-4-fluorophenyl)ureido)-6-methylpyrido[2,3-b]pyrazin-3-yl)amino)benzoic acid]
Viability % CTL A2058 melanoma (10 μM) ([1]; Table 4, 10 μM): 98 % CTL | Viability % CTL DU145 prostate (10 μM ) ([9]; Table 4, DU145 prostate, 10 μM): 82 % CTL

Compound: CCN(CC)CCNCC(=O)Nc1cc2ncc(Nc3ccccc3)nc2nc1C [Compound 27E]
Viability (% CTL) at 10 μM A2058 melanoma [1]: 85 % CTL | Viability (% CTL) at 10 μM DU145 prostate ([9]; DU145 prostate, 10 μM): 82 % CTL

Compound: CSc1ccc(NC(=O)Nc2cc3ncc(Sc4ccccc4)nc3nc2C)cc1 [Compound 19B]
Viability % CTL A2058 melanoma [1]: 89 % CTL | Viability % CTL DU145 prostate ([9]; DU145 prostate): 113 % CTL
